{"source": "patent US20050009772A1", "about": "“Methods and compositions for the treatment of glaucoma and other retinal diseases” (The Regents of the University of California, priority 2003, published 2005)", "key": {"retinal ganglion cells": {"system": "retinal ganglion cells", "assay": "2DG administration in the animal model of glaucoma", "format": "in vivo", "conditions": "animal model of glaucoma employed herein", "description": "Lan et al., NeuroReport 14:2369-72 (2003). In the hands of the, present inventors, however, 2DG administration was ineffective in protecting retinal ganglion cells in the animal model of glaucoma employed herein. Thus, confirmation of efficacy in a relevant animal model is required before any actual conclusions can be drawn.\nRats were anesthetized with intramuscular injections of 0.8 ml/kg of the anesthetic cocktail described above. A previously published procedure was modified to produce chronic moderately elevated IOP unilaterally, while the untreated contralateral eye served as the comparative control.40 Animals were injected intracamerally with 10 μl of 35% India ink (Becton Dickinson, Cockeysville, Md.) in 0.01 M PBS after removing a similar volume of aqueous. At the end of the procedure, Tobrex ophthalmic ointment (tobramycin 0.3%; Alcon, Fort Worth, Tex.) was applied topically. Five days after intracameral injection of India ink, a dark band at the limbus was noted due to the aggregation of carbon particles in the trabecular meshwork.38 After anesthesia, approximately 200 laser burns were delivered ab externo to the pigmented trabecular band at laser settings of 200 μm diameter, 200 mW power and 0.2 seconds duration. Three weeks after the first laser treatment, another trabecular laser photocoagulation was performed without further injection of ink."}, "HSP72 [1]": {"system": "HSP72", "assay": "Western blot for HSP72 in enriched RGC fraction after systemic administration of GGA (Experiment 1)", "format": "in vivo, rat", "conditions": "GGA 200 mg/kg co-administered with quercetin 4 mg/kg daily i.p., 7 days", "method": "Experiment 1 was performed to evaluate the expression of HSP72 and HSC70 in RGCs after systemic administration of GGA with Western blot analysis and immunohistochemistry. For Western blotting, twelve rats were equally divided into 6 groups. Three groups of animals were given intraperitoneal injections of GGA 200 mg/kg daily and were euthanized after 1-, 3- or 7 days of administration of GGA. Three control groups were intraperitoneally administered 1) saline-vehicle daily for 7 days; 2) GGA with 4 mg/kg of quercetin (Sigma, St. Louis, Mo.) daily for 7 days; and 3) untreated animals. Enriched RGC fraction was harvested from 2 retinas of each group and used for Western blot analysis. The same experiment for isolation of RGCs and Western blotting was repeated with the other 2 retinas-from each group.\nA solution of 80 mg/mL GGA was prepared in saline (Balanced salt solution; Alcon Laboratories, Inc., Fort Worth, Tex.) and emulsified for one hour in an ultrasonic generator (Branson Ultrasonic Corp., Danbury, Conn.) immediately before administration. Intraperitoneal injections of GGA were given at a dose of 200 mg/kg. Saline-vehicle was prepared and administered in the same fashion in vehicle-treated control groups.\nA previously described method was modified to partially purify RGCs from other retinal cells in rat retinas.38 Briefly, two dissected rat retinas from each subgroup were washed in 2.5 ml of calcium- and magnesium-free phosphate buffered saline (PBS) at pH 7.4, and incubated in 1.25 ml of PBS containing 0.5 mg/ml trypsin and 0.01% deoxyribonuclease for 15 minutes at 37° C. This was followed by washing the retinas twice in 2.5 ml of minimal essential medium (MEM) containing 10% (vol/vol) fetal bovine serum. The retinas were subsequently washed in 2.5 ml of MEM twice and dissociated in 3 ml of MEM. The cell suspension was then mixed with 1.5 ml of 30% metrizamide (ICN Biomedicals, Inc., Aurora, Ohio) in MEM to a final concentration of 10 metrizamide. This mixture was then overlaid with 5% metrizamide in MEM, and the gradient was centrifuged at 4500 rpm (HB-4; Sorvall Instruments, Newtown, Conn.) for 25 minutes at 4° C. The cells in the 5% to 10% interface were collected. and washed in 25 ml of cold MEM. The washed cells were pelleted by centrifugation at 250×g for 10 minutes (Juan 3000C centrifuge, Winchester, Va.). The cells were then resuspended in 400 μl of MEM buffer, and the protein concentration in the cell suspension was measured with a bicinchoninic acid (BCA) protein assay kit (Pierce, Rockford, Ill.).\nWestern blot analysis was performed according to the procedure described by Towbin et al.39 Aliquots of 20 μg of protein from enriched RGCs were separated on a 12% SDS-polyacrylamide minigel (Bio-Rad, Hercules, Calif.) and transferred to the membrane (Immunobilon-P; Millipore Corporation, Bedford, Mass.). The membrane was blocked by incubation in 0.1% Tween-20 in 100 mM Tris-buffered saline containing 10% nonfat dried milk for 1 hour. The membranes were incubated with mouse monoclonal antibody against HSP72 (1:1000; StressGen Biotechnologies Corp., Victoria, British Columbia, Canada) or with rat monoclonal antibody against HSC70 (1:1000; StressGen) overnight and then biotinylated rabbit anti-mouse secondary antibody (1:500; Amersham Pharmacia Biotech, Inc., Piscataway, N.J.) or biotinylated goat anti-rat secondary antibody (1:500; Amersham Pharmacia) for 1 hour. This was followed by incubation with streptavidin-conjugated horseradish peroxidase (1:2000; Amersham Pharmacia) for 40 minutes. The immunoreactive bands were detected by chemiluminescence with an enhanced chemiluminescence Western blot reagent (Amersham Pharmacia)."}, "[2]": {"system": "retinal ganglion cells (RGCs)", "assay": "Density of DTMR-labeled RGCs in rat glaucoma model (Experiment 2)", "format": "in vivo", "conditions": "retinas with IOP elevation, 5 weeks; quercetin = co-administered with GGA", "description": "GGA was then given twice a week at the same dose until euthanasia. Sustained elevation of intraocular pressure (IOP) was maintained by performing trabecular laser photocoagulation three weeks after the first photocoagulation. […] IOP and body weight were measured once a week. […] Rats were anesthetized with intramuscular injections of 0.8 ml/kg of the anesthetic cocktail described above. A previously published procedure was modified to produce chronic moderately elevated IOP unilaterally, while the untreated contralateral eye served as the comparative control.40 Animals were injected intracamerally with 10 μl of 35% India ink (Becton Dickinson, Cockeysville, Md.) in 0.01 M PBS after removing a similar volume of aqueous. At the end of the procedure, Tobrex ophthalmic ointment (tobramycin 0.3%; Alcon, Fort Worth, Tex.) was applied topically. Five days after intracameral injection of India ink, a dark band at the limbus was noted due to the aggregation of carbon particles in the trabecular meshwork.38 After anesthesia, approximately 200 laser burns were delivered ab externo to the pigmented trabecular band at laser settings of 200 μm diameter, 200 mW power and 0.2 seconds duration. Three weeks after the first laser treatment, another trabecular laser photocoagulation was performed without further injection of ink. […] A cross section of the optic nerve was made with the needle knife through the opening of the optic nerve sheath, with care not to damage the adjacent blood supply. DTMR crystals were applied to the proximal cut surface of the optic nerve to label RGCs by fast retrograde axonal transport. After euthanasia and enucleation, the retinas were dissected and flattened with four radial cuts (superotemporal, inferotemporal, superonasal, and inferonasal). They were placed with vitreal side up on glass slides, dried in the dark at room temperature overnight and mounted. The retinas were examined with a fluorescence microscope (Axioplan; Carl Zeiss, Oberkochen, Germany) equipped with a filter that permits visualization of rhodamine fluorescence (excitation filter BP 546, barrier filter LP590; Carl Zeiss). The counting of RGCs was conducted by 2 examiners in a masked fashion. […] Each rectangular area measured 0.475 mm×0.362 mm and the total counted area corresponded to approximately 3.1% of each total retinal area. Data are expressed as number of RGCs per mm2."}, "[3]": {"system": "TUNEL positive cells in the RGCL", "assay": "TUNEL analysis of RGCL after 1 week of IOP elevation (Experiment 3)", "format": "in vivo, rat", "conditions": "elevated IOP retinas, 1 week; quercetin = co-administered with GGA", "method": "Experiment 3 was performed to investigate the inhibition of apoptosis with GGA administration after 1 week of IOP elevation (n=56).\nRats were anesthetized with intramuscular injections of 0.8 ml/kg of the anesthetic cocktail described above. […] At the end of the procedure, Tobrex ophthalmic ointment (tobramycin 0.3%; Alcon, Fort Worth, Tex.) was applied topically. Five days after intracameral injection of India ink, a dark band at the limbus was noted due to the aggregation of carbon particles in the trabecular meshwork.38 After anesthesia, approximately 200 laser burns were delivered ab externo to the pigmented trabecular band at laser settings of 200 μm diameter, 200 mW power and 0.2 seconds duration. Three weeks after the first laser treatment, another trabecular laser photocoagulation was performed without further injection of ink.\nFour-μm thick paraffin embedded sections along the vertical meridian of the optic nerve head were collected and a minimum of 6 retinal sections (8 μm apart) per eyeball was used for counting the number of TUNEL positive cells in the RGCL. Only full length and undamaged retinal sections without oblique orientation were used. The procedures described in the ApopTag Peroxidase In Situ Apoptosis Detection Kit (Intergen Co., Purchase, N.Y.) were followed and diaminobenzidine (Sigma, St. Louis, Mo.) was used as a color substrate. Counting was performed by two masked investigators with light microscopy, and averaged."}, "HSP72 [4]": {"system": "HSP72", "assay": "Quantitative immunohistochemical analysis of HSP72 in the RGCL after 1 week of IOP elevation (Experiment 3)", "format": "in vivo, rat", "conditions": "quercetin = co-administered with GGA", "description": "TdT-mediated biotin-dUTP nick end labeling (TUNEL) and immunohistochemical analysis for HSP72 and HSC70 were performed.\nAnimals were deeply anesthetized with intramuscular injections of 0.8 ml/kg of a cocktail of 5 ml ketamine (100 mg/ml), 2.5 ml xylazine (20 mg/ml), 1.0 ml acepromazine (10 mg/ml), and 1.5 ml normal saline. Then they were transcardially perfused with 4% paraformaldehyde in 0.1 M phosphate buffer. The enucleated eyeballs were immersed in fixative for 1 hour, bisected and post-fixed overnight. The eyes were embedded in paraffin and sectioned at a four-μm thickness along the vertical meridian through the optic nerve head. After deparaffinization and hydration, a species-specific Vectastain ABC kit (Vector Laboratories, Inc., Burlingame, Calif.) was chosen to match the species of primary antibody and the manufacturer's procedures were followed. The tissue sections were incubated with blocking serum solution in PBS for 1 hour. This was followed by incubation with primary antibody at 4° C overnight. The antibodies were mouse monoclonal antibody against HSP72 (1:500; StressGen Biotechnologies Corp., Victoria, British Columbia, Canada), goat polyclonal antibody against HSP72 (1:1000; Santa Cruz Biotechnology, Inc., Santa Cruz, Calif.) or rat monoclonal antibody against HSC70 (1:200; StressGen). Antigen-antibody complexes were detected by an avidin-biotin-peroxidase technique (Vectastain ABC Kit; Vector Laboratories). Diaminobenzidine (DAB) was used to produce a brown color in the target tissue and the slides were permanently mounted. As a negative control, alternate retinal section was incubated with blocking solution by replacing the primary antibody or with anti-rabbit secondary antibody by replacing the original secondary antibody.\nImmunohistochemical staining was analyzed quantitatively with a computer-assisted image processing unit (Image-Pro Plus software, Media Cybernetics, Silver Spring, Md.) and the “count-measure” function. Images of immuno-stained sections were captured with a digital camera (Cool snap, RS Photometric, Tucson, Ariz.) attached to the microscope (Axio plan, Carl Zeiss, Oberkochen, Germany) at 630× magnification under oil immersion. The system was calibrated according to the supplier's manual before the analysis. For each digital image, all individual cells in the RGCL were marked by a masked examiner and the optical density of each cell was measured. The relative intensities of cells in the RGCL were measured and averaged (±SEM) to yield a single value representing one retina."}}, "note": "Entries after “also recorded” stand apart in the source; their conditions may differ."}
{"smiles": "OCC1OC(O)CC(O)C1O", "note": "[2DG, 2-deoxy-D-gluycose]", "values": [{"measurement": "protection of retinal ganglion cells", "setting": "retinal ganglion cells", "result": "ineffective"}]}
{"smiles": "O=c1c(O)c(-c2ccc(O)c(O)c2)oc2cc(O)cc(O)c12", "note": "[quercetin]", "values": [{"measurement": "expression of HSP72 in RGCs (immunoblot)", "setting": "HSP72 [1]", "result": "inhibited"}, {"measurement": "effect on density of DTMR-labeled RGCs (in words)", "setting": "[2]", "result": "abolished the protective effect"}, {"measurement": "effect on number of TUNEL positive cells (in words)", "setting": "[3]", "result": "reversed"}, {"measurement": "HSP72 expression (immunoreactive intensity) in the RGCL", "setting": "HSP72 [4]; control (normal IOP) retinas vs vehicle-alone controls", "result": "abolished; also recorded: diminished"}, {"measurement": "HSP72 expression (immunoreactive intensity) in the RGCL", "setting": "HSP72 [4]; retinas with IOP elevation, 1 week", "result": "significantly reduced; also recorded: abolished"}]}
